The record followed here is patent publication US20100143428A1, “A STABLE GLUTARALDEHYDE COMPLEX” (priority 2006, published 2010).

The test system of this test is bacteria. In words: Residual efficacy on bacterially contaminated surfaces, duration of effect. The test is classed as cell-based. The following applies: "as is". As to the method: Table 1 tabulates results of a residual efficacy test done on the product of the invention (sample number RT14) by the South African Bureau of Standards (SABS) using the European surface test method (1993), to determine the residual efficacy of the sample on bacterially contaminated surfaces.
The surfaces of stainless steel discs (2 cm^2) were seeded with a 0.1 ml bacterial suspension containing 10^7 bacterial cells/ml and thereafter dried at 37° C. for one hour. The 0.1 ml RT14 sample was dropped onto the dried disc, ensuring that the disc was totally covered. After 24 hours, 48 hours, 7 days, 14 days and 30 days respectively, the surfaces were again seeded with a bacterial suspension. After a minute contact time, the stainless steel discs were placed in conical flasks containing 10m1 of a neutralization medium to neutralize the RT14 and the flasks were shaken to dislodge the cells from the discs. Tenfold dilutions of the flask contents were placed onto sterile petri dishes. Nutrient agar was poured onto the petri dishes, mixed with contents, and incubated at 37° C. for 2 days. Colony-forming bacterial cells were counted. Untreated stainless steel discs were used as controls.

With `O=CCCCC=O` [glutaraldehyde], the “duration of effectiveness on bacteria” value is on record as “up to 10 hours”.
